Values joined by “and” are separate entries in the source; they are usually repeats but may differ in a detail not shown here. Identical values can stand only once. Like-named read-outs stand apart in the source and are kept apart here.
Legend:
[1] = Formation kinetics of Pb2+ complexes (UV-Vis / 1H NMR); type: physicochemical; conditions: for ability to complex Pb^2+: pH < 7, 1H NMR of metal-ligand mixtures; for Pb^2+ complex formation: below pH = 4, after 2 weeks at room temperature or prolonged heating, UV-Vis; for time to reach equilibrium of Pb^2+ complexation: pH = 5, equimolar ligand and metal concentrations (10^–4 M), room temperature
Experimental: The formation kinetics of the Pb^2+ complexes was evaluated at room temperature by UV–Vis or ^1H NMR spectroscopy. A typical experiment was performed by mixing equimolar amounts of metal and ligand solutions (final concentrations: 1.0 × 10^–4 M for UV–Vis, 1.0 × 10^–3 M for ^1H NMR) in buffered media at pH = 2 (HCl 10^–2 M), pH = 3.7 (formic/formiate buffer), pH = 5 (acetic/acetate buffer), and pH = 7.4 (2-[4-(2-hydroxyethyl)piperazin-1-yl]ethanesulfonic acid, i.e., HEPES, buffer). To avoid the formation of PbCO3 (Ks = 7.4 × 10^–14), water was boiled before each measurement.
The electronic spectra were collected in the 200–800 nm range at different time points using a Cary 60 UV–Visible spectrophotometer (Agilent) equipped with a 1 cm path length quartz cell. The complexation reactions were monitored by the increase in the absorption peaks diagnostic of the Pb^2+-ligand complex formation at the characteristic wavelength (Table S2) over time. ^1H NMR spectra were recorded on a 400 MHz Bruker Avance III HD spectrometer. All data were collected […] with Topspin 3.5 using standard Bruker processing parameters with Topspin 4.1.1 software. […] Water suppression was carried out with the excitation sculpting pulse scheme.[38]

[2] = Concentration-dependent radiolabeling with [203Pb]Pb2+ (iTLC); conditions: for RCI of [^203Pb]Pb^2+ on heating: T = 80 °C; for radiochemical incorporation (RCI) of [^203Pb]Pb^2+ / RCI of [^203Pb]Pb^2+ / effect of a change in reaction time on RCI: pH = 7, room temperature; for RCI of [^203Pb]Pb^2+: after 5 min; for effect of a change in reaction time on RCI: 5 min vs 1 h
Experimental: Water replaced the ligands in the negative control. All of the radiolabeling for the cyclen-based derivatives was performed at room temperature and monitored at 5 min and 1 h time points whereas heating at T = 80 °C was also employed for TACD3S, TRI4S, and TE4S. All radiolabeling reactions were repeated at least in triplicate.
Radiochemical incorporation (RCI) was determined via instant thin-layer chromatography (iTLC) with silicic acid (SA)-impregnated paper TLC plates (iTLC-SA, Agilent Technologies, USA). Ethylenediamine tetraacetic acid (EDTA, 50 mM, pH = 5.5) was used as the eluent. […] The iTLC plates were analyzed on an Eckert & Ziegler AR-2000 TLC scanner, and all the data were processed with Eckert & Ziegler WinScan software.

[3] = Acid-mediated dissociation kinetics in aqueous HCl (UV-Vis); type: physicochemical; conditions: room temperature
From the text: The dissociation kinetics of the Pb^2+ complexes were studied under pseudo-first-order conditions at room temperature without control of the ionic strength by the addition of a concentrated aqueous solution of HCl (0.01 to 1 M) to aqueous solutions of the preformed complexes. The concentration of the Pb^2+ complexes after the H^+ addition was 1.0 × 10^–4 M. The dissociation reaction was followed by the decreasing intensity of the absorption band of the complexes at the characteristic wavelength (Table S2) using the same apparatus described for the formation kinetic measurements (vide supra).
The data were processed and fitted using the equation lnAt = lnA0 – ^dkobst, where At and A0 are the absorbances at time t and at the beginning of the reaction and ^dkobs is the observed dissociation rate constant. The corresponding half-life was obtained from the equation t1/2 = ln(2)/^dkobs.

[4] = Out-of-cell UV-Vis spectrophotometric titrations (stability constants, pPb); type: physicochemical; conditions: for log β, Pb^2+ + L ⇋ [PbL]: UV–Vis spectrophotometric titrations, I = 0.15 M NaNO3, T = 25 °C; for pPb = −log[Pb^2+]free / pPb* (−log of free Pb^2+ plus hydrolysis products): calculated at CPb^2+ = 10^–6 M, Cligand = 10^–5 M, pH = 7.4
Experimental: The ionic strength (I) was fixed to 0.15 M using sodium nitrate (NaNO3) as background electrolytes. All of the experiments described below were repeated at least in triplicate.
UV–Vis spectrophotometric titrations were carried out by the out-of-cell method in the pH range of 0–12 at T = 25 °C. […] A Mettler Toledo pH meter with a glass electrode was used to measure the pH. […] In highly acidic solutions (pH ≪ 2), the pH was computed from the acid concentration (pH = −logCH^+). After the pH adjustment, the vials were sealed, heated to T = 60 °C to ensure complete Pb^2+ complexation, and cooled to room temperature. The absorption spectra were recorded using the same apparatus described for the kinetic measurements (vide supra). The equilibrium was reached when no variations of the electronica spectra or the pH were detected.
All equilibrium data were processed using the least-squares fitting program PITMAP as described in our previous works.[2],[4],[28] The overall equilibrium constants refer to the general equilibria pM^m+ + qH^+ + rL^l– ⇆ MpHqLr^pm+q–rl, where M^m+ represent the metal ion and L^l– represents the deprotonated ligand, and are designated as logβ (βpqr = [MpLqHr]/[M]^p[L]^q[H]^r). The refinements of log β included the previously determined ligand protonation constants and the Pb^2+ hydrolysis products whose equilibrium constants were fixed to the literature values.[27],[39] […] The errors quoted are the standard deviations of the overall stability constants calculated by the PITMAP program.

[5] = parameters: method as in PMID 35571797, doi:10.1002/ejic.200700819; conditions: state-of-the-art ligands, computed from literature constants; cited from earlier work
[6] = parameters: method as in PMID 33527221; conditions: cited from earlier work

Compound | ability to complex Pb^2+ [1] | RCI of [^203Pb]Pb^2+ on heating ([2]; ligand 10^–4 M) | radiochemical incorporation (RCI) of [^203Pb]Pb^2+ ([2]; ligand 10^–4 M, 1 h) | time to reach equilibrium of Pb^2+ complexation [1] [h] | log β, Pb^2+ + L ⇋ [PbL] [4] | pPb = −log[Pb^2+]free [4] | pPb* (−log of free Pb^2+ plus hydrolysis products) [4] | radiochemical incorporation (RCI) of [^203Pb]Pb^2+ ([2]; ligand 10^–7 M, 1 h) [%] | further results
CSCCN1CCCN(CCSC)CCN(CCSC)CCCN(CCSC)CC1 [TE4S, 1,4,8,11-tetrakis[2-(methylsulfanyl)ethyl]-1,4,8,11-tetrazacyclotetradecane] | not be able to complex Pb^2+ | only vaguely improved | no radiometal incorporation was observed |  |  |  |  |  | 
CSCCN1CCNCCN(CCSC)CCN(CCSC)CC1.[Pb+2] [[Pb(DO3S)]^2+] |  |  |  |  |  |  |  |  | t1/2 acid-assisted dissociation ([3]; CHCl 0.01 M): 12 ± 2 min; ^dkobs acid-assisted dissociation ([3]; CHCl 0.1 M): 1.5 ± 0.3 min^–1; t1/2 acid-assisted dissociation ([3]; CHCl 0.1 M): 0.47 ± 0.09 min; t1/2 acid-assisted dissociation ([3]; CHCl 1.0 M): ^b (Instantaneous decomplexation during the reagent mixing time.)
CSCCN1CCNCCN(CCSC)CCN(CCSC)CC1 [DO3S, 1,4,7-tris[2-(methylsulfanyl)ethyl]-1,4,7,10-tetraazacyclododecane] |  |  | 88 ± 1% and 88% | 6 | 14.2 ± 0.1 | 11.3 | 11.0 | 2 ± 1 | Pb^2+ complex formation [1]: No complex formation was detected; RCI of [^203Pb]Pb^2+ [2]: 65%
1,4,7-tris[2-(methylsulfanyl)ethyl]-10-acetamido-1,4,7,10-tetraazacyclododecane [DO3SAm] |  |  | > 90% | 1 | 16.8 ± 0.1 | 14.2 | 13.9 | 14 ± 4 | effect of a change in reaction time on RCI [2]: no effect; radiochemical incorporation (RCI) of [^203Pb]Pb^2+ ([2]; ligand 10^–5 M, 1 h): > 90%; radiochemical incorporation (RCI) of [^203Pb]Pb^2+ ([2]; ligand 10^–6 M, 1 h): 68 ± 4%; radiochemical incorporation of [^203Pb]Pb^2+ ([2]; room temperature, 5 min reaction time, chelator concentration as low as 10^–5 M): quantitative radiochemical incorporation
O=C(O)CN1CCN(CC(=O)O)CCN(CC(=O)O)CCN(CC(=O)O)CC1 [DOTA, 1,4,7,10-tetraazacyclododecane-1,4,7,10-tetraacetic acid] |  |  |  |  |  |  |  |  | pPb [5]: 20; RCI of [^203Pb]Pb^2+ ([6]; ligand 10^–4 M): 96 ± 1%; RCI of [^203Pb]Pb^2+ ([6]; ligand 10^–5 M): 76 ± 9%; RCI of [^203Pb]Pb^2+ ([6]; ligand 10^–6 M): 3 ± 1%; RCI of [^203Pb]Pb^2+ ([6]; ligand 10^–7 M): 1.5 ± 0.2%
CSCCN1CCN(CCSC)CCN(CCSC)CCN(CCSC)CC1 [DO4S, 1,4,7,10-tetrakis[2-(methylsulfanyl)ethyl]-1,4,7,10-tetraazacyclododecane] |  |  | 81 ± 10% and 81% | 24 | 12.3 ± 0.1 | 10.2 | 10.0 | 1.4 ± 0.4 | Pb^2+ complex formation [1]: No complex formation was detected; reaction time of Pb^2+ complexation ([1]; pH = 7.4, room temperature): 1 h; RCI of [^203Pb]Pb^2+ [2]: 35%
NC(=O)CN1CCN(CC(N)=O)CCN(CC(N)=O)CCN(CC(N)=O)CC1 [TCMC, 1,4,7,10-tetraaza-1,4,7,10-tetra-(2-carbamoylmethyl)-cyclododecane, reference compound] |  |  |  |  |  |  |  | 41 ± 1 | effect of a change in reaction time on RCI [2]: no effect; radiochemical incorporation (RCI) of [^203Pb]Pb^2+ ([2]; ligand concentrations higher than 10^–6 M): quantitative; pPb [5]: > 18
CSCCN1CCCN(CCSC)CCN(CCSC)CCN(CCSC)CC1 [TRI4S, 1,4,7,10-tetrakis[2-(methylsulfanyl)ethyl]-1,4,7,10-tetrazacyclotridecane] | not be able to complex Pb^2+ | only vaguely improved | no radiometal incorporation was observed |  |  |  |  |  | 
CSCCN1CCCN(CCSC)CCCN(CCSC)CCC1 [TACD3S, 1,5,9-tris[2-(methylsulfanyl)ethyl]-1,5,9-triazacyclododecane] | not be able to complex Pb^2+ | only vaguely improved | no radiometal incorporation was observed |  |  |  |  |  | 
